# In patent US20070060605A1, “Compositions and methods for inhibiting platelet activation and thrombosis” (priority 2001, published 2007):
# Experiments:
# recombinant human PDE2 = recombinant human PDE2 (Homo sapiens, UniProt O00408); experiment: Phosphodiesterase inhibition, PDE2; format: biochemical; conditions: up to 1 μM
# Protocol: (§1) Intracellular cAMP generated by adenylyl cyclase in platelets is actively hydrolyzed by phosphodiesterase. […] Human platelets express PDE2, PDE3, and PDE5. Therefore, the compound was tested for its inhibitory effect on these phosphodiesterases using methods as described in Example 3.
# human platelet PDE5 = target: T1, human platelet PDE5 (Homo sapiens, UniProt O76074); experiment: Phosphodiesterase inhibition, PDE5; format: biochemical; conditions: up to 1 μM
# T1 construct: human platelet PDE5; from tissue; host or cells: human platelets
# Protocol: as §1
# [1] = listed as Pyridazinone compound
# [2] = listed as pyridazinone compound
# recombinant human PDE2, sequence (O00408 whole entry): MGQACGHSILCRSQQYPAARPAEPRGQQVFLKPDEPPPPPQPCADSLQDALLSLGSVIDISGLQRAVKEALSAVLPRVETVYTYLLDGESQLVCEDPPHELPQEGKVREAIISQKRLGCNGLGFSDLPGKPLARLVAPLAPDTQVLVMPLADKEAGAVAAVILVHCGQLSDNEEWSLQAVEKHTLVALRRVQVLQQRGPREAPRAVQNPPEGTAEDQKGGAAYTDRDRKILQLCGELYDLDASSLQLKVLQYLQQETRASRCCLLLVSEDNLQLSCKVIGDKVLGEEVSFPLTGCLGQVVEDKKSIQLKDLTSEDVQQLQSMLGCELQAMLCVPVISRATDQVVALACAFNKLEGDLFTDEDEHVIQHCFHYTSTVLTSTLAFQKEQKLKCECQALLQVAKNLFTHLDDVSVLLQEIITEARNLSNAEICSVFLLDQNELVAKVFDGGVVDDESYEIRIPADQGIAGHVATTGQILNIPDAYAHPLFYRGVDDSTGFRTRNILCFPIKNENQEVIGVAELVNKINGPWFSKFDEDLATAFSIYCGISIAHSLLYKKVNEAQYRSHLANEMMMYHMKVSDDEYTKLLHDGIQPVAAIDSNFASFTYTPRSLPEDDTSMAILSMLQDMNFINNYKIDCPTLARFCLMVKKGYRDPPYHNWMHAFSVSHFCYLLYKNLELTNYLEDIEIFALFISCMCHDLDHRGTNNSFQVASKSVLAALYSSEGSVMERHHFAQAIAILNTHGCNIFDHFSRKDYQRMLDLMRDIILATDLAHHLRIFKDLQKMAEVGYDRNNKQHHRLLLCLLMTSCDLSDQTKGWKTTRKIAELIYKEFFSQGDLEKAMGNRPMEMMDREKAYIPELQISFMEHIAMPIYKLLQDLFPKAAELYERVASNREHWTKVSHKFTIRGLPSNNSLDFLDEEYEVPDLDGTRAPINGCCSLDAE
compound,measurement,setting,value
"CC1CC(=O)NN=C1c1ccc(N)c([N+](=O)[O-])c1 (stereo not shown) [6-(4-Amino-3-nitro-phenyl)-5-methyl-4,5-dihydro-2H-pyridazin-3-one]",Inhibition of recombinant human PDE2,recombinant human PDE2; [1],No significant inhibition
same,Inhibition of recombinant human PDE2,recombinant human PDE2; [2],little inhibition
same,Inhibition of human platelet PDE5,human platelet PDE5; [1],No significant inhibition
same,Inhibition of human platelet PDE5,human platelet PDE5; [2],little inhibition
